Earlier results in patent US20200030399A1, “HERBAL COMPOSITIONS OF CALIFORNIA POPPY AND METHOD FOR THE TREATMENT OF SLEEP AND DREAM-RELATED DISORDERS” (MONDIAS NATURELS INC., priority 2017, published 2020).

Columns and labels:
[1] = system: stereotyped behaviour effects of dexamphetamine; details: mice
[2] = system: dexamphetamine produced mortality; details: mice
pentetylenetetrazole = details: mice
myorelaxant effects = details: mice
[3] = system: anticholinergic effects of Oxotremorine; details: mice
acetic acid writhing = details: mice; doses not given; dose-response for the extract
[4] = system: reserpine-induced ptosis, akinesia or hypothermia; details: mice

CN(C)CCCN1c2ccccc2Sc2ccc(Cl)cc21 [Chlorpromazine]
stereotyped behaviour effects of dexamphetamine [1]: significantly decreased
protective effect against dexamphetamine produced mortality [2]: a protective effect was observed

O=C(O)C1N=C(c2ccccc2)c2cc(Cl)ccc2NC1=O (centres unmarked) [Clorazepate, Clorazepate dipotassium]
anticonvulsant effects (pentetylenetetrazole): Dose-dependent anticonvulsant and myorelaxant effects
myorelaxant effects (myorelaxant effects): Dose-dependent anticonvulsant and myorelaxant effects

CN(C)CCCN1c2ccccc2CCc2ccccc21 [Imipramine]
effect against the anticholinergic effects of Oxotremorine [3]: significantly reduced

CC(=O)Oc1ccccc1C(=O)O [acetylsalicylic acid]
Protection against writing (acetic acid writhing) (acetic acid writhing): 60%

CN(C)CCC=C1c2ccccc2CCc2ccccc21 [amitryptiline]
effect against reserpine-induced ptosis, akinesia or hypothermia [4]: significantly reduced ptosis and hypothermia

CC(=O)Nc1ccc(O)cc1 [paracetamol]
Protection against writing (acetic acid writhing) (acetic acid writhing): 60%
